Reference: US9205135B2, “Podocyte pH modulation and uses thereof” (University of Miami, priority 2009, dated 2015)
Entries after “also recorded” stand apart in the source; their conditions may differ. Residues, ends and D or L forms follow the SMILES beside them. *: point of attachment. Cbz = O=C(OCc1ccccc1)*; CH2F = FC*

Key:
NIH 3T3 = assay: Glutamine uptake rate in NIH 3T3 cells; format: cell-based
Procedure: (§1) All together, these experiments discovered a uniform metabolic response for podocytes that are injured.
(§2) Cells, antibodies, and standard techniques: Mouse podocyte cell lines (15) and HEK 293 cells (6) were grown as described previously. NIH 3T3 cells were cultured in Dulbecco's modified Eagle's minimal essential medium (Invitrogen, Carlsbad, Calif.) supplemented with 10% fetal calf serum (Invitrogen) and incubated in a humidified atmosphere of 95% air and 5% CO2 at 37° C. Antibody used for immunostaining are Alexa Fluor 594 phalloidin (Molecular Probes, Eugene, Oreg.). Subcellular fractionation was performed as described previously (6).

HEK293 = assay: Glutamine uptake rate in HEK293 cells; format: cell-based
Procedure: as §1, §2

podocytes [1] = assay: Glutamine uptake rate in cultured podocytes; format: cell-based, mouse; settings: injury stimulus
From the text: A podocyte metabolic model was constructed based on available databases as well as mRNA and protein expression data extracted from podocytes. The following podocyte culture models were employed: wildtype (control), LPS and PAN stimulated podocytes (inducible injury models) as well as podocytes with genetic deletion of the alpha3 gene (genetic disease model). All injury cultures increase the uptake of glutamine as well as gluconeogenic aminoacids. In addition, there is increasing ammonia production in diseased podocytes. These changes were predicted by the podocyte metabolic model and confirmed by measuring directly amino acids and ammonia (FIGS. 1A-1D).
Metabolic Flux Analysis emphasizes glutamine utilization pathways for podocyte function: We utilized cultured normal podocytes (control) (15) and three in vitro models for podocyte damage: i) podocytes with α3 integrin deletion (genetic model) (16); ii) podocytes treated with lipopolysaccharides (LPS, immunological model) (17); and iii) podocytes treated with puromycin aminonucleoside (PAN, toxic model) (18). […] Using the podocyte MFA network, we were able to extract podocyte aminoacid and glucose utilization (FIG. 10b-d) that was also independently measured in direct validation studies (data not shown). All analyzed modeling and experimentation data supported the notion that the aminoacid metabolism of podocytes is changed in disease. […]

cathepsin L = assay: Cathepsin L activity in cultured podocytes, CV-(FR)2 substrate; format: cell-based, mouse
Procedure: Subcellular sites of cathepsin L and cathepsin B activity in glomerular extracts were visualized by a fluorogenic substrate, CV-(FR)2, which emits light upon cleavage by cathepsin L or cathepsin B (Biomol).
Measurement of cathepsin L activity: Cathepsin L activities in cultured podocytes and in glomeruli was measured using CV-CatL detection kit (Biomol, Plymouth Meeting, Pa.) as described in the manufacturer's instructions. The fluorophore cresyl violet [CV-(FR)2] substrate becomes florescent after Cat L cleavage of the attached Phe-Arg groups. This substrate easily penetrates the cell membrane and the membranes of the internal cellular organelles, enabling the detection of cathepsin activity within living podocytes.

cathepsin B = settings: cited from earlier work
wt podocytes = assay: F-actin cytoskeleton staining of cultured podocytes; format: cell-based, mouse; settings: wt podocytes after LPS treatment, glutamine in medium vs absent
Procedure: The absence of cathepsin L protected from LPS-mediated loss of F-actin.
as §2
(§3) Immunohistochemistry and immunoelectron microscopy: For immunofluorescent labeling, sections were washed once with PBS and incubated with blocking solution (2% FCS, 2% BSA, 0.2% fish gelatin) for 30 min at room temperature before further incubation with the primary antibody for 1 h at room temperature. Antigen-antibody complexes were visualized with secondary antibodies conjugated with fluorochromes. Specimens were analyzed using a Zeiss confocal microscope (Germany). Ultrathin sections of the kidneys were examined with a Philips CM10 electron microscope (The Netherlands). The number of podocytic FPs was counted in 10 different areas of representative glomeruli. In each area, the number of FPs was calculated within a distance of 1 μm on the GBM (34).

podocytes [2] = assay: Intracellular pH of cultured podocytes by CMFDA fluorescence; format: cell-based, mouse; settings: glutamine present vs absent in culture medium; normal and α3 integrin deficient podocytes
Procedure: Podocyte pH was assessed with CMFDA—an indicator for pH. Higher green signal is consistent with a more alkaline cell. The presence of high glutamine levels in cell culture media alkalinizes the normal podocytes as well as podocytes that lack integrin α3β1 (genetic model cells for podocyte disease) (FIG. 3A). Both, LPS and PAN treatment stimulate cathepsin L activity in podocytes. Cathepsin L activity is lower in the presence of high glutamine in the cell culture media that in turn leads to a more alkaline podocyte cytosol (FIGS. 3B, 3C).
Modification of intracellular pH by glutamine: One of the key feature in podocyte injury that can be found in all three employed cellular podocyte models is the induction of cytosolic cathepsin L that in turn cleaves critical regulators of the podocyte microfilament system resulting in a reorganization of the podocyte actin cytoskeleton and proteinuria (6). In contrast to lysosomal cathepsin L, cytosolic cathepsin L is operating under non-acidic conditions. […] We used a fluorescent dye CMFDA (5-chloromethylfluorescein diacetate) that captures changes in intracellular pH by alterations in fluorescence (25). The more alkaline the pH, the more green fluorescence is detected (FIGS. 11a-c). […] Using CMFDA, the pH in control cells was determined at 7.1 and at 7.3 in α3 integrin-KO podocytes. […]

C57BL/6 mice = assay: LPS-induced proteinuria model in mice; format: in vivo, mouse; settings: for glomerular pH (CMFDA fluorescence of isolated glomeruli): glutamine 0.75 mg/g
Procedure: Treatment of mice with glutamine increases podocyte pH and protects from LPS-induced proteinuria: In order to translate our in vitro findings into a kidney disease relevant model, we next utilized the LPS model in mice known to cause podocyte foot process effacement and proteinuria driven by induction of cytosolic cathepsin L (6). To this end, mice were either injected with only LPS or treated with high dose (0.75 mg/g) glutamine injection 10 min after LPS administration. We analyzed the relative alkalinity of glomeruli using isolated glomeruli that were incubated with green CMFDA. […] We also tested renal function and measured proteinuria in these mice. […] These effects were also visible on an ultrastructural level.
as §3
Animals and treatments: All animal studies were performed under protocols approved by the University of Miami animal care and use committee. C57BL/6 mice were obtained from The Jackson Laboratory. The mouse model LPS-induced proteinuria was utilized as previously described (16). Glutamine (Invitrogen) is injected i.p. (0.75 mg/g mouse) 10 min after LPS ([…]) (Sigma Aldrich, St. Louis, Mo.) injection.

CN(C)c1ncnc2c1ncn2[C@@H]1O[C@H](CO)[C@@H](N)[C@H]1O [PAN, puromycin aminonucleoside]
glutamine uptake rate (NIH 3T3): increasing glutamine uptake rate | glutamine uptake rate (HEK293): increasing glutamine uptake rate | glutamine uptake rate (podocytes [1]): stimulated | cathepsin L activity in podocytes (cathepsin L; effect of the injury stimulus itself): stimulate

O=C(NC(Cc1ccccc1)C(=O)NC(Cc1ccccc1)C(=O)CF)OCc1ccccc1 (stereo not drawn) [Z-FF-FMK, Z-Phe-Phe-FMK] (Cbz-Phe-Phe-CH2F; configuration not given here)
inhibition of cathepsin B (cathepsin B): does not inhibit

NC(=O)CC[C@H](N)C(=O)O [glutamine]
F-actin presence (wt podocytes): improved F-actin presence | podocyte cytosolic pH (CMFDA fluorescence) (podocytes [2]): alkalinizes; also recorded: more alkaline cytosolic pH | podocyte foot process effacement (electron microscopy) (C57BL/6 mice; LPS-treated mice with glutamine vs LPS only): protects; also recorded: decreased foot process effacement | glomerular pH (CMFDA fluorescence of isolated glomeruli) (C57BL/6 mice; LPS-treated mice): increase in CMFDA fluorescence; also recorded: glomerular alkalinization; also recorded: increased alkalinity | proteinuria (urinary protein/creatinine ratio) (C57BL/6 mice; LPS-treated mice, glutamine 0.75 mg/g i.p., 24 h): ameliorates; also recorded: significant lower | glomerular pH (CMFDA fluorescence of isolated glomeruli) (C57BL/6 mice; LPS-treated mice, listed as Glutamine): increase in CMFDA fluorescence | cathepsin L activity in podocytes (cathepsin L; high glutamine in cell culture media, LPS or PAN treated podocytes): lower
